Data on five compounds can be found in ChEMBL document CHEMBL1154471, “Lanostane-type triterpenoids from the sclerotia of Inonotus obliquus possessing anti-tumor promoting activity” (Eur J Med Chem, 2008).

Series [1] is described as follows: Cytotoxicity against human Raji cells assessed as cell viability at 1000 molar ratio by trypan blue staining relative to control. It is filed as cell-based. The conditions noted are these: read-out: Activity.
The nature of series [2]: Inhibition of TPA-induced EBV-early antigen activation in human Raji cells assessed as EA activation. It is filed as cell-based, human gammaherpesvirus 4.
Series [3] relates to Raji. In words: Inhibition of TPA-induced EBV-early antigen activation in human Raji cells assessed as EA activation at 1000 molar ratio after 48 hrs relative to TPA. The conditions noted are these: human gammaherpesvirus 4. It is filed as cell-based. More on the design: scale not given: the % may be the effect or the level left.
Series [4] relates to Raji. In words: Inhibition of TPA-induced EBV-early antigen activation in human Raji cells assessed as EA activation at 10 molar ratio […] relative to TPA. Further details: scale not given: the % may be the effect or the level left. The conditions noted are these: human gammaherpesvirus 4. It is filed as cell-based.
In series [5] the test system is Raji. In words: Inhibition of TPA-induced EBV-early antigen activation in human Raji cells assessed as EA activation at 100 molar ratio […] relative to TPA. It is filed as cell-based. More on the design: scale not given: the % may be the effect or the level left. The conditions noted are these: human gammaherpesvirus 4.
Series [6] concerns Raji. The experiment in a line: Inhibition of TPA-induced EBV-early antigen activation in human Raji cells assessed as EA activation at 500 molar ratio after 48 hrs relative to TPA. Further details: scale not given: the % may be the effect or the level left. The conditions noted are these: human gammaherpesvirus 4. It is filed as cell-based.
Series [7] relates to Mus musculus. The experiment in a line: Inhibition of DMBA-induced/TPA-promoted carcinogenesis in mouse assessed as number of skin papillomas per mouse at 85 nmol administered twice weekly after 1 week of initiation for 11 weeks. It is filed as functional.
The test system of series [8] is Mus musculus. The experiment in a line: Inhibition of DMBA-induced/TPA-promoted carcinogenesis in mouse assessed as number of mouse bearing papillomas at 85 nmol administered twice weekly after 1 week of initiation for 20 weeks. More on the design: scale not given: the % may be the effect or the level left. It is filed as functional.
For series [9], the system named is Mus musculus. In words: Inhibition of DMBA-induced/TPA-promoted carcinogenesis in mouse assessed as number of mouse bearing papillomas at 85 nmol administered twice weekly after 1 week of initiation for 11 weeks. Further details: scale not given: the % may be the effect or the level left. It is filed as functional.
In series [10] the test system is Mus musculus. The experiment in a line: Inhibition of DMBA-induced/TPA-promoted carcinogenesis in mouse assessed as number of skin papillomas per mouse at 85 nmol administered twice weekly after 1 week of initiation for 20 weeks. It is filed as functional.

For `CC(C)=CCC[C@@H](CO)[C@H]1CC[C@@]2(C)C3=C(CC[C@]12C)[C@@]1(C)CC[C@H](O)C(C)(C)[C@@H]1CC3`, the viability at 1000 molar ratio in series [1] stood at 70%. The IC50 in series [2] is recorded as 392 molar ratio. The Activity turned out to be 10.9% with Raji [3], 100% with Raji [4], 77.5% in the series with Raji [5] and 47.1% in the series with Raji [6].

On to `CC1(C)CC[C@]2(C(=O)O)CC[C@]3(C)C(=CC[C@@H]4[C@@]5(C)CC[C@H](O)C(C)(C)[C@@H]5CC[C@]43C)[C@@H]2C1` [OLEANOLIC_ACID], for which, in series [2], the IC50 was determined as 389 molar ratio. Also, the Activity was determined as 12.7% in the series with Raji [3], 100% with Raji [4], 80% with Raji [5] and 30% in the series on Raji [6].

Take `C[C@H]([C@H](O)/C=C/C(C)(C)O)[C@H]1CC[C@@]2(C)C3=C(CC[C@]12C)[C@@]1(C)CC[C@H](O)C(C)(C)[C@@H]1CC3`: in series [1], the viability at 1000 molar ratio is 70%. In addition, the IC50 in series [2] worked out at 231 molar ratio. The Activity came out at 0% in the series on Raji [3], 89.2% in the series on Raji [4], 69.8% in the series on Raji [5] and 26.9% in the series on Raji [6].

Consider `C[C@H]([C@H](O)/C=C/C(C)(C)O)[C@H]1CC[C@@]2(C)C3=CC[C@H]4C(C)(C)[C@@H](O)CC[C@]4(C)C3=CC[C@]12C`, for which, in [1], the viability at 1000 molar ratio was found to be 70%. Moreover, the IC50 in [2] is on record as 228 molar ratio. The Activity in the series with Raji [3] was determined as 0%; with Raji [4] it was 88.2%; in the series on Raji [5], 67.3%; in the series on Raji [6], 25.1%.

`CC(C)=CCC[C@@H](C=O)[C@H]1CC[C@@]2(C)C3=C(CC[C@]12C)[C@@]1(C)CC[C@H](O)C(C)(C)[C@@H]1CC3`: the Activity is 1.2 in the series with Mus musculus [7]; 73.3% in the series on Mus musculus [8]; 0% with Raji [3]; 90.4% in the series on Raji [4]; 33.3% in the series on Mus musculus [9]; 3.8 with Mus musculus [10]. Further, the Activity was 64% in the series on Raji [5] and 35.1% in the series on Raji [6]. The viability at 1000 molar ratio in series [1] amounted to 70%. For the same compound, in series [2], the IC50 is recorded as 232 molar ratio.
